{"source": "patent US7910557B2", "about": "“Hair care product” (Maruzen Pharmaceuticals Co., Ltd., priority 2005, dated 2011)", "key": {"[1]": {"target": "T1, testosterone 5α-reductase (Rattus norvegicus, UniProt P24008)", "T1 construct": "75 μl of S-9 (rat liver homogenate, Oriental Yeast Co., Ltd.); tissue Oriental Yeast Co., Ltd; host or cells: rat liver S-9 homogenate", "T1 sequence (P24008 1-259)": "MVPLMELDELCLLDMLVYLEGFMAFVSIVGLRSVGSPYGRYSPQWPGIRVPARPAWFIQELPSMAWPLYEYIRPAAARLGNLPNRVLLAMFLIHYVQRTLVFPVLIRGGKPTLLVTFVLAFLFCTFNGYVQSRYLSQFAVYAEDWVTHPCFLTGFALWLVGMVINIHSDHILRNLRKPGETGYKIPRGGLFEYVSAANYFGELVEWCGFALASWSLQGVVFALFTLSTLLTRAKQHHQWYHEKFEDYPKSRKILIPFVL", "assay": "Test for testosterone 5α-reductase inhibiting action (S-9 rat liver homogenate, GC quantification)", "type": "biochemical"}, "[2]": {"tested_on": "FGF-7 gene", "assay": "FGF-7 mRNA expression promotion in HFDPC (RT-PCR)", "type": "cell-based, human", "settings": "for mRNA expression promotion rate (%) FGF-7 mRNA: HFDPC, corrected by G3PDH, control = 100", "protocol": "(§1) The FGF-7 growth promoting action, VEGF growth promoting action and BMP-2 growth promoting action of the corosolic acid obtained in producing examples 1 and 2 (samples 1 and 2) were tested as follows.\n(§2) Human hair follicle dermal papilla cells (HFDPC) were cultured using a human hair follicle dermal papilla cells growth medium (PCGM), then the cells were retrieved by trypsinization. The retrieved cells were diluted to a cell concentration of 2×10^5 cells/ml using a DMEM medium containing 10% FBS, after which the cells were inoculated in 60 mm-diameter Petri dishes, at a rate of 5 ml, followed by incubation overnight.\n(§3) Once incubation was over, the cells were changed to a serum-less DMEM medium to which the samples (sample 1 and 2) had been added after two-hour incubation, then the cells were dissolved in 1 ml of a reagent for RNA extraction (TRIzol, Invitrogen Corporation). After addition of 200 μl of chloroform to the solutions, these were centrifuged (12000 rpm, 4° C., 15 minutes) and the top RNA layer was isolated. The RNA layer was concentrated in isopropanol. The total RNA concentrated and precipitated was dissolved in a TE solution (10 mM Tris-HCl/1 mM EDTA, pH 8.0), and was taken as a total RNA standard (sequence numbers 1 to 3) used in a template of quantitative RT-PCR for measuring the mRNA expression level of the FGF-7 gene, the VEGF gene and the BMP-2 gene. […]\n(§4) After synthesizing single-strand DNA from 500 ng of total RNA in a PCR apparatus (TaKaRa PCR Thermal Cycler MP, TAKARA BIO INC.), the FGF-7 gene (sequence no. 4), the VEGF gene (sequence no. 5), the BMP-2 gene (sequence no. 6), and the G3PDH gene as an internal standard were amplified by PCR reaction, from the single-strand DNA, using specific sense primers (sequence nos. 7 to 9) and antisense primers (sequence nos. 10 to 12) of the respective genes, then 10 μl of the amplified product were electrophoresed on 1.2% agarose gel. […] Then the RT-PCR products were quantitatively measured using KODAK 1D Image Analysis Software EDAS290 Version3.5. […]"}, "[3]": {"tested_on": "Normal human head hair papilla cells", "assay": "Test for hair papilla cell growth promoting action (MTT assay)", "type": "cell-based", "settings": "for Hair papilla cell growth promotion rate (%): 4 days, control = 100", "protocol": "Normal human head hair papilla cells were cultured using a papilla cell growth medium (Cell Application Inc.) containing 2% fetal bovine serum (FBS) and proliferation additives, then the cells were retrieved by trypsinization. The retrieved cells were diluted to a cell concentration of 1.0×10^4 cells/ml using a DMEM medium containing 10% FBS, after which the cells were inoculated in a collagen-coated 96-well plate, at a rate of 200 μl per well, followed by incubation for 3 days. After incubation, the medium was removed and then to the wells there were added 200 μl each of a sample solution in which a respective sample had been dissolved in serum-free DMEM. The wells were then incubated for a further 4 days.\nOnce incubation was over, the medium was removed, and then to the wells there was added 100 μl each of MTT dissolved in serum-free DMEM (final concentration 0.4 mg/ml). After 2 hours of incubation, the blue formazan formed inside the cells was extracted with 100 μl of 2-propanol. The absorbance of the extracts was measured at a 570 nm wavelength. Turbidity was measured at the same time, as absorbance at the 650 nm wavelength. The amount of blue formazan formed was taken as the difference between the two absorbances. As a control, the same measurements were carried out for specimens in which serum-less DMEM was added instead of the sample solutions. The hair papilla cell growth promotion rate (%) was calculated from the obtained results using the formula below. Hair papilla cell growth promotion rate(%)=A/B×100\nIn the formula, A represents “absorbance upon sample addition”, and B represents “absorbance without sample addition”."}, "[4]": {"tested_on": "VEGF gene", "assay": "VEGF mRNA expression promotion in HFDPC (RT-PCR)", "type": "cell-based, human", "settings": "for mRNA expression promotion rate (%) VEGF mRNA: HFDPC, corrected by G3PDH, control = 100", "protocol": "as §1, §2, §3, §4"}, "[5]": {"tested_on": "BMP-2 gene", "assay": "BMP-2 mRNA expression promotion in HFDPC (RT-PCR)", "type": "cell-based, human", "settings": "for mRNA expression promotion rate (%) BMP-2 mRNA: HFDPC, corrected by G3PDH, control = 100", "protocol": "as §1, §2, §3, §4"}, "[6]": {"settings": "sample concentration 0.06 μg/ml"}, "[7]": {"settings": "sample concentration 0.25 μg/ml"}}}
{"smiles": "C[C@H]1[C@H](C)CC[C@]2(C(=O)O)CC[C@]3(C)C(=CC[C@@H]4[C@@]5(C)C[C@@H](O)[C@H](O)C(C)(C)[C@@H]5CC[C@]43C)[C@H]12", "note": "[Sample 1, corosolic acid]", "values": [{"measurement": "IC50", "setting": "[1]; S-9 rat liver homogenate, 37° C., 30 minutes, by interpolation, read-out: IC50 (sample concentration at which the inhibition rate of testosterone 5α-reductase is 50%) (converted)", "result": 1.18, "unit": "mM"}, {"measurement": "testosterone 5α-reductase inhibiting action (in words)", "setting": "[1]; conclusion from Table 1", "result": "excellent testosterone 5α-reductase inhibiting action"}, {"measurement": "promotion of mRNA expression of the FGF-7 gene (in words)", "setting": "[2]; conclusion from Table 3", "result": "promote the mRNA expression"}, {"measurement": "mRNA expression promotion rate (%) FGF-7 mRNA", "setting": "[2]; [6]", "result": "122.9 ± 8.5", "unit": "%"}, {"measurement": "mRNA expression promotion rate (%) FGF-7 mRNA", "setting": "[2]; [7]", "result": "124.8 ± 7.2", "unit": "%"}, {"measurement": "hair papilla cell growth promoting action (in words)", "setting": "[3]; conclusion from Table 2", "result": "hair papilla cell growth promoting action"}, {"measurement": "Hair papilla cell growth promotion rate (%)", "setting": "[3]; sample concentration 1.56 μg/ml", "result": "111.5 ± 2.2", "unit": "%"}, {"measurement": "Hair papilla cell growth promotion rate (%)", "setting": "[3]; sample concentration 6.25 μg/ml", "result": "106.1 ± 1.4", "unit": "%"}, {"measurement": "promotion of mRNA expression of the VEGF gene (in words)", "setting": "[4]; conclusion from Table 3", "result": "promote the mRNA expression"}, {"measurement": "mRNA expression promotion rate (%) VEGF mRNA", "setting": "[4]; [6]", "result": "121.8 ± 3.5", "unit": "%"}, {"measurement": "mRNA expression promotion rate (%) VEGF mRNA", "setting": "[4]; [7]", "result": "106.7 ± 4.5", "unit": "%"}, {"measurement": "promotion of mRNA expression of the BMP-2 gene (in words)", "setting": "[5]; conclusion from Table 3", "result": "promote the mRNA expression"}, {"measurement": "mRNA expression promotion rate (%) BMP-2 mRNA", "setting": "[5]; [6]", "result": "105.3 ± 3.8", "unit": "%"}, {"measurement": "mRNA expression promotion rate (%) BMP-2 mRNA", "setting": "[5]; [7]", "result": "135.3 ± 5.5", "unit": "%"}]}
